Consider 9 compounds from ChEMBL document CHEMBL5442219.

Common to all, as to settings: Compound concentration 10 µM
In assay [1] the target is T1, Alpha-2A adrenergic receptor (Homo sapiens) (UniProt P08913).
T1 sequence (whole entry): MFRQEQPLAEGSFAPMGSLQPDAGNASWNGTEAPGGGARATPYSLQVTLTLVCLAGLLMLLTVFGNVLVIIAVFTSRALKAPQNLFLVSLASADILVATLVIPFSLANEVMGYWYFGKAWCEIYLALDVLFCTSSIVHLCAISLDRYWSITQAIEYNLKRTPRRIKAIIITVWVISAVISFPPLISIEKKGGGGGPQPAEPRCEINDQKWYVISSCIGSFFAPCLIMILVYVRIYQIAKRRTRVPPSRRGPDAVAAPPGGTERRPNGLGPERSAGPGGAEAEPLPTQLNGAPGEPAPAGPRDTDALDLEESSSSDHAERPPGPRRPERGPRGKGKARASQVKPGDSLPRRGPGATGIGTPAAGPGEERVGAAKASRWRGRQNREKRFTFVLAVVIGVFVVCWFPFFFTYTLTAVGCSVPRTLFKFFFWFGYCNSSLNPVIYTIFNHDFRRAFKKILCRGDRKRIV

The target in assay [2] is T2, Alpha-2C adrenergic receptor (Homo sapiens) (UniProt P18825).
T2 sequence (whole entry): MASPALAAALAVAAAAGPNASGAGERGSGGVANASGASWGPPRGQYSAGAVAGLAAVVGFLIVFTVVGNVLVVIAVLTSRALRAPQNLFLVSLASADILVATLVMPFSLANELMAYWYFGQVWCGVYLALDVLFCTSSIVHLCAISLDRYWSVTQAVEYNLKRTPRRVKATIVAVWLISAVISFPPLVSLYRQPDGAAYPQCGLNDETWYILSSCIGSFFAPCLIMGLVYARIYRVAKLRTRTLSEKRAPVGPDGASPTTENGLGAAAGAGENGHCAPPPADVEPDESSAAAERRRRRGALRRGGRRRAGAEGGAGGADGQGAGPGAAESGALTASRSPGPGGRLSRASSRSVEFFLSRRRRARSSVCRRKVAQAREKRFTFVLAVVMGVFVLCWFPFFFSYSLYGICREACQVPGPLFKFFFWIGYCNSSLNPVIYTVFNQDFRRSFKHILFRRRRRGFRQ

Assay [3] concerns the target Muscarinic acetylcholine receptor M3 (Homo sapiens) (UniProt P20309).
Assay [4] addresses D(3) dopamine receptor (Homo sapiens) (UniProt P35462).
Assay [5] concerns the target T3, D(4) dopamine receptor (Homo sapiens) (UniProt P21917).
T3 sequence (whole entry): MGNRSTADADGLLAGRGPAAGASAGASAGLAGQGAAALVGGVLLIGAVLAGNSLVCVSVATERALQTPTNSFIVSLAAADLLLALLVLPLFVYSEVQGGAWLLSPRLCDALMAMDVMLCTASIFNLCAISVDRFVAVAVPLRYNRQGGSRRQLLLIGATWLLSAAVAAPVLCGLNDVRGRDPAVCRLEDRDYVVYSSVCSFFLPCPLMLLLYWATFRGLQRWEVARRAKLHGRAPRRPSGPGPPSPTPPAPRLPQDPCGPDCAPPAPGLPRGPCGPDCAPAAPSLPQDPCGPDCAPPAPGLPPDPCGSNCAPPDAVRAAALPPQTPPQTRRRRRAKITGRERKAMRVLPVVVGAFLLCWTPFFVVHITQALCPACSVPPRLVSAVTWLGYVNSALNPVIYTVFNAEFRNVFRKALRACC

For assay [6], the target named is Histamine H3 receptor (Homo sapiens) (UniProt Q9Y5N1).
Chain of Histamine H3 receptor (Homo sapiens) (Q9Y5N1 whole entry): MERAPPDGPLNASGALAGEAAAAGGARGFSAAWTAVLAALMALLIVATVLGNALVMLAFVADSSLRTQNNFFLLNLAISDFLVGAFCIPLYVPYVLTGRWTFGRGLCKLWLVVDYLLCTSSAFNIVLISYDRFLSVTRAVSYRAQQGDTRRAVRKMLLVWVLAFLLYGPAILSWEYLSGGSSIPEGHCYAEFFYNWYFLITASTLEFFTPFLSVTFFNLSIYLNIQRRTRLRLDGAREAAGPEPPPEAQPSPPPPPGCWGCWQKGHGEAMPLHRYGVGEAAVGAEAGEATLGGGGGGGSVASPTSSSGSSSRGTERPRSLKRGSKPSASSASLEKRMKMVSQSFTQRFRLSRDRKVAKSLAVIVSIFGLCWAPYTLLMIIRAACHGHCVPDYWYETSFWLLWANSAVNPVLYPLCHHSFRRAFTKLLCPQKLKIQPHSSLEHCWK
In assay [7] the target is Histamine H4 receptor (Homo sapiens) (UniProt Q9H3N8).
Chain of Histamine H4 receptor (Homo sapiens) (Q9H3N8 whole entry): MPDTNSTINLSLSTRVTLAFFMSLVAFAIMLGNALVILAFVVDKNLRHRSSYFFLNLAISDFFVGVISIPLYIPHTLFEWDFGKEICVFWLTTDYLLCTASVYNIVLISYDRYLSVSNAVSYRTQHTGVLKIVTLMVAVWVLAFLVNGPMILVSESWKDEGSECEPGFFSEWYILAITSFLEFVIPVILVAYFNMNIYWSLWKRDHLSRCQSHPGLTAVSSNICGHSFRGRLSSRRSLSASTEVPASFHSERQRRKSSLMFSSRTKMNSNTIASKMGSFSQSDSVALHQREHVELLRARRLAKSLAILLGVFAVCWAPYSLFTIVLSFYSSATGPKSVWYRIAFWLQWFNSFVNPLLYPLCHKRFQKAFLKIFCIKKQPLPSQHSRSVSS
Assay [8] concerns the target T4, 5-hydroxytryptamine receptor 1A (Homo sapiens) (UniProt P08908).
T4 sequence (whole entry): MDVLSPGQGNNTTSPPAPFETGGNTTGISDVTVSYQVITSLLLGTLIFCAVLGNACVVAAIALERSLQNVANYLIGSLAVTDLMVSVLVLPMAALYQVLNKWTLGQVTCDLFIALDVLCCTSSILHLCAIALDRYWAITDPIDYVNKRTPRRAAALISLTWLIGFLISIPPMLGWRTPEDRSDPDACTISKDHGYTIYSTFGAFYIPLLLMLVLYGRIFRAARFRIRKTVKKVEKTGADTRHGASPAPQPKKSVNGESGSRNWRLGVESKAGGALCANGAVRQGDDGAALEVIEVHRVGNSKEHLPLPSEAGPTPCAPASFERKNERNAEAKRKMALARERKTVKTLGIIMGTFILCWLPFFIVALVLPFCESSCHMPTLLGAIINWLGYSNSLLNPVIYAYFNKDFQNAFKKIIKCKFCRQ

Assay [9] has as its target T5, 5-hydroxytryptamine receptor 3A (Homo sapiens) (UniProt P46098).
T5 sequence (whole entry): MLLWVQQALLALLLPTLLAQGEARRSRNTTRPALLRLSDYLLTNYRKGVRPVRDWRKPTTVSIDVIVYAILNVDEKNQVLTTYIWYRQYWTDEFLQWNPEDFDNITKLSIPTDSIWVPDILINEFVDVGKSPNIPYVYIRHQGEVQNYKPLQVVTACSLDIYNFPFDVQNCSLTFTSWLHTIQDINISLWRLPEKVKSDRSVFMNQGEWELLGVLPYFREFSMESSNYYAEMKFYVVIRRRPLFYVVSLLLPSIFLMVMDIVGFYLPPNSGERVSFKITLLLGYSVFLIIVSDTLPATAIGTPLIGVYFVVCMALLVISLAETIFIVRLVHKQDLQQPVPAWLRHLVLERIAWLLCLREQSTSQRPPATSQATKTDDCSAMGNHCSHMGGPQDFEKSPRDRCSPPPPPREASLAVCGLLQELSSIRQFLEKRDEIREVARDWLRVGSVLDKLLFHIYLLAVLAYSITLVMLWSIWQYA

Assay [10] addresses 5-hydroxytryptamine receptor 6 (Homo sapiens) (UniProt P50406).
Assay [11] has as its target 5-hydroxytryptamine receptor 7 (Homo sapiens) (UniProt P34969).
Assay [12] addresses Sodium-dependent noradrenaline transporter (Homo sapiens) (UniProt P23975).
Assay [13] deals with Sodium-dependent serotonin transporter (Homo sapiens) (UniProt P31645).
Chain of Sodium-dependent serotonin transporter (Homo sapiens) (P31645 whole entry, looked up): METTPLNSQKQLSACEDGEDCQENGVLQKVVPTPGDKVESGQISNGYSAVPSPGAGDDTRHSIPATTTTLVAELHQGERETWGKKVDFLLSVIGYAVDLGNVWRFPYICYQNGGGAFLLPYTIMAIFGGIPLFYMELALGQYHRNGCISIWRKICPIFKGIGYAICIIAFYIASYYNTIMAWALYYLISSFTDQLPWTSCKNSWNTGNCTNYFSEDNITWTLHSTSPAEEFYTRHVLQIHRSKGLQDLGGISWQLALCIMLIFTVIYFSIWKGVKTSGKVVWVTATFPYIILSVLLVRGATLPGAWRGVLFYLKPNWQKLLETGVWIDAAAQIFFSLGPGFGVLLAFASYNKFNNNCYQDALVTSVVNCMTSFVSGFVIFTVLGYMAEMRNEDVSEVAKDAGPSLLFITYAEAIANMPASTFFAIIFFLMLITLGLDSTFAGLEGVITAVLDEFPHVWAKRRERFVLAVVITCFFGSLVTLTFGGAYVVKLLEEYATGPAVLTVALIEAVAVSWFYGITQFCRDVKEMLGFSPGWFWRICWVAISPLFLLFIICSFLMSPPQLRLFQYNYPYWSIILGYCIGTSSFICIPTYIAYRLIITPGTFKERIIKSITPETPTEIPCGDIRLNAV
The target of assay [14] is 5-hydroxytryptamine receptor 1E (Homo sapiens) (UniProt P28566).
Chain of 5-hydroxytryptamine receptor 1E (Homo sapiens) (P28566 whole entry): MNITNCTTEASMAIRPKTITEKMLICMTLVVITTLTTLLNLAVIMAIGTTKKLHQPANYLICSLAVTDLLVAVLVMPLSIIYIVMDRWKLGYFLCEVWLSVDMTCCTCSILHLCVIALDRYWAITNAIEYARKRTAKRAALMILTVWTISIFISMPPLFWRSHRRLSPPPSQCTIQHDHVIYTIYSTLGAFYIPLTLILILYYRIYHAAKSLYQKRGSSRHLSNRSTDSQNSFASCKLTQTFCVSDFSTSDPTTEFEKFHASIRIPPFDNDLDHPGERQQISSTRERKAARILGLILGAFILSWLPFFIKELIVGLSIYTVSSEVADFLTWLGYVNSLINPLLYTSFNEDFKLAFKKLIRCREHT

Chain of 5-hydroxytryptamine receptor 7 (Homo sapiens) (P34969 whole entry): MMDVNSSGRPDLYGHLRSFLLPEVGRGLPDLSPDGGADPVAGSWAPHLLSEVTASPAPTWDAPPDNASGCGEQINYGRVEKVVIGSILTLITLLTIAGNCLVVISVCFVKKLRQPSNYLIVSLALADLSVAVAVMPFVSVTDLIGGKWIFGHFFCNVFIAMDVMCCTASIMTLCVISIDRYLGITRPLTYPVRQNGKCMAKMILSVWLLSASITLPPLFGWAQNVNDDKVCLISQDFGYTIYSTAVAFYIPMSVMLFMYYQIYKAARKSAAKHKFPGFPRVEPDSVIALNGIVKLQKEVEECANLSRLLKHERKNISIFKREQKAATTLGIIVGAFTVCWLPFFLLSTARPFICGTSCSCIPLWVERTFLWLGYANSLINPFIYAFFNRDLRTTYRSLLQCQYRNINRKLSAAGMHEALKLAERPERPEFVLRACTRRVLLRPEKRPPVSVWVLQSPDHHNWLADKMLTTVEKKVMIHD
Chain of 5-hydroxytryptamine receptor 6 (Homo sapiens) (P50406 whole entry): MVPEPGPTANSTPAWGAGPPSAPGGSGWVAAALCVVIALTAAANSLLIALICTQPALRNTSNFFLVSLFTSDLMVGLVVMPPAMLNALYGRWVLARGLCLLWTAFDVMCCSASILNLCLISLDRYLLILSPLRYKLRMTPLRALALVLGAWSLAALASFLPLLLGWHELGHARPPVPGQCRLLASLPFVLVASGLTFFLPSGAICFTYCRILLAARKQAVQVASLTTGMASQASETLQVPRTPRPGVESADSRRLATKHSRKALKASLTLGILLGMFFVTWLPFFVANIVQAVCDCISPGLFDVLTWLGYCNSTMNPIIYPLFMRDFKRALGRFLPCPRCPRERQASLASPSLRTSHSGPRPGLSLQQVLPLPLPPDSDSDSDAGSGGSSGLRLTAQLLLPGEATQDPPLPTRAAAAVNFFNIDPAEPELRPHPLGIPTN
Chain of Sodium-dependent noradrenaline transporter (Homo sapiens) (P23975 whole entry): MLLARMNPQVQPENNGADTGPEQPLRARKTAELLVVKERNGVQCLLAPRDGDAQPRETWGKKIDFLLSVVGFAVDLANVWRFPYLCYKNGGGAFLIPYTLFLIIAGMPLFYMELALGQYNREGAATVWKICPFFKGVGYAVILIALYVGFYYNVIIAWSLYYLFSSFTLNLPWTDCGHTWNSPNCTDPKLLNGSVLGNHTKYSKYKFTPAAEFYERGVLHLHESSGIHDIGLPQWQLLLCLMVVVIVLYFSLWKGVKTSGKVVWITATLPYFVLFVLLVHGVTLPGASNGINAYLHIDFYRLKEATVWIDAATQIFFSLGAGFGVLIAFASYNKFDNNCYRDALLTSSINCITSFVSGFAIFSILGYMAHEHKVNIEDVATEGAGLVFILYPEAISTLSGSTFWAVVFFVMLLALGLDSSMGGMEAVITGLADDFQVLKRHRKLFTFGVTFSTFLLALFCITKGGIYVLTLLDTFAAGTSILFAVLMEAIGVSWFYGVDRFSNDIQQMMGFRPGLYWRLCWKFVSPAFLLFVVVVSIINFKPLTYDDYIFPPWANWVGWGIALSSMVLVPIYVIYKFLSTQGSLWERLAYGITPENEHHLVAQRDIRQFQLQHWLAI
Chain of D(3) dopamine receptor (Homo sapiens) (P35462 whole entry): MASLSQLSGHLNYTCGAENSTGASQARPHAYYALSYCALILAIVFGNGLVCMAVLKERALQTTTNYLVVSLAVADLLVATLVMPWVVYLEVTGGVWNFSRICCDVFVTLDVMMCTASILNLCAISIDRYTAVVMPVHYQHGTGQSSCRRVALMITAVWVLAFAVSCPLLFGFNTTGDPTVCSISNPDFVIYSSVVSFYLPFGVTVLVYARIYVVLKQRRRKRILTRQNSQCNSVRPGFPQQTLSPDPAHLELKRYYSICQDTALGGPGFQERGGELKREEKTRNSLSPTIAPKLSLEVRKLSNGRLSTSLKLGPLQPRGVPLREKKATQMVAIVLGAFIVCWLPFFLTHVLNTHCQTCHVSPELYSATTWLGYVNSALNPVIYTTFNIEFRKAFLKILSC
Chain of Muscarinic acetylcholine receptor M3 (Homo sapiens) (P20309 whole entry, looked up): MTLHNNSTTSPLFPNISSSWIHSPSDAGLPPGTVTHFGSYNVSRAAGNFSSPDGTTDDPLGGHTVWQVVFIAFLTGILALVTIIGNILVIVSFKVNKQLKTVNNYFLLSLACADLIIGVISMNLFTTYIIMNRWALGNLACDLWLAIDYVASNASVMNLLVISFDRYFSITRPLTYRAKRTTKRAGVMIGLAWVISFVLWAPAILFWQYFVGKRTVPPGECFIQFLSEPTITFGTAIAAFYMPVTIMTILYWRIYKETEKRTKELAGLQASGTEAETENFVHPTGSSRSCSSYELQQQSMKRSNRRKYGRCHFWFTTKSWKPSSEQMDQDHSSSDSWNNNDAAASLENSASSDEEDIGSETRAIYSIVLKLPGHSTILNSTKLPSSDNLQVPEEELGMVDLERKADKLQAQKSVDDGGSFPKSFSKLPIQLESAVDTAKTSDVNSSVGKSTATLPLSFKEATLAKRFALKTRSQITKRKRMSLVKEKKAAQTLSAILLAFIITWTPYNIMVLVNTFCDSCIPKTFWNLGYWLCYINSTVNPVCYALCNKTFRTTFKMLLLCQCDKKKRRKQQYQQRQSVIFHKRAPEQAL

The term inhibition denotes the change of the read-out against control, counted positive when it falls. Regarding `COc1cc(-n2cnc3cc(-c4ccc(Cl)cc4)sc3c2=O)ccc1OCCN1CCCC1`, the inhibition in [1] was 70.6%; in assay [2], 71.9%; in assay [3], 56.6%; in assay [4] it was 68.5%; in assay [5] it was 32.4%; in assay [6], 88.9%. For the same compound, the inhibition was 58.1% in [7]; 8.71% in assay [8]; 22.5% in [9]; -7.71% in assay [10]; 16.4% in assay [11]; 80.4% in assay [12]. In addition, the inhibition in [13] is 85.8%.
Turning to `COc1cccc([C@H](O)C2CCN(CCc3ccc(F)cc3)CC2)c1OC`, the inhibition in assay [1] was 33.1%; in [2], 26.7%; in assay [3], -8.67%; in assay [4], 9.18%; in assay [5] it was 43.9%; in [6], 3.17%. The inhibition was 3.4% in assay [7]; 3.32% in assay [8]; -0.41% in assay [14]; 9.53% in assay [9]; 5.14% in assay [10]; 34.5% in [11]. The inhibition is 45.2% in [12] and 27.2% in [13].
As for `COc1ccc(NS(=O)(=O)c2sc3ccc(Cl)cc3c2C)cc1N1CCNCC1`, the inhibition in [1] was 75.7%; in assay [2], 35.2%; in assay [3] it was 3.19%; in assay [4], 91%; in assay [5], 0.64%; in [6], 16.6%. Moreover, the inhibition was 18.2% in assay [7]; 67.4% in [8]; 13.8% in [14]; 73.3% in assay [9]; 87.3% in assay [10]; 38.3% in [11]. The inhibition in [12] was 61.7%; in [13], 37.7%.
As to `CCc1ccc(OCc2ccccc2C(=O)Nc2ccc3nc(C)cc(N)c3c2)cc1`, the inhibition was 42.2% in [1]; 40.9% in [2]; 11.1% in assay [3]; 33.9% in assay [4]; 21.3% in assay [5]; 36.6% in assay [7]. Besides, the inhibition in assay [8] is 9.8%; in assay [14] it was 9.69%; in assay [9], 24.7%; in assay [10], 46.5%; in [11] it was 46.5%; in [12] it was 87.4%. Moreover, the inhibition in [13] was 36%.
`CCOC(=O)c1c(C)[nH]c2ccc3c(c12)CN1CCc2cc(OC)ccc2C1O3` (stereo not drawn): the inhibition in [1] was 86.7%; in assay [2], 95%; in assay [3] it was 69.2%; in assay [4] it was 44.2%; in assay [5], -5.53%; in assay [6], -2.82%. The inhibition in assay [7] was 29.1%; in [14], -6.16%; in [9] it was 75.4%; in assay [10], 10.8%; in assay [11], 9.23%; in assay [12] it was 51%. Moreover, the inhibition in assay [13] is 6.67%.
Consider `CNC[C@H](O)c1cccc(O)c1`, for which the inhibition in assay [1] was 78.2%; in assay [2], 32.8%; in assay [3] it was -8.03%; in [4], 12.7%; in assay [6] it was 13.1%; in [7], 19.6%. Also, the inhibition in [8] is 1.52%; in assay [14], 23.9%; in assay [9], 0.2%; in assay [10] it was 9.39%; in assay [11], 75.5%; in assay [12] it was 8.86%. Moreover, the inhibition in [13] is 3.06%.
With `OC1(c2ccc(Cl)cc2)CCN(Cc2c[nH]c3ccccc23)CC1`, the inhibition in assay [1] is 76.1%; in [2], 30.4%; in assay [3], -9.56%; in assay [4] it was 88.8%; in [5] it was 66.1%; in [7], 13.8%. Besides, the inhibition in assay [8] is 2%; in [9], -7.87%; in assay [10], -7.57%; in [11], 10.4%; in assay [12] it was 63.5%; in assay [13] it was 102%.
Consider `C[C@@H](N)Cc1c[nH]cn1`, for which the inhibition was 8.47% in assay [1]; 10.9% in [2]; -7.33% in assay [3]; 8.41% in assay [4]; 103% in assay [6]; 95.7% in [7]. Moreover, the inhibition in assay [8] was -9.3%; in [14] it was 14.9%; in assay [9], 5.88%; in [10] it was 2.58%; in assay [11], 3.45%; in assay [12] it was -7.81%. For the same compound, in assay [13], the inhibition was 6.49%.
As to `CN1CC(=O)N=C1NC(=O)Nc1cccc(Cl)c1`, the inhibition in assay [1] was 3.42%; in assay [2] it was -3.83%; in assay [3] it was 1.42%; in [4], -3.16%; in [5], 27.2%; in [6] it was -4.69%. Further, the inhibition in assay [7] was -9.18%; in [14], 7.82%; in assay [9] it was -5.43%; in [10], -0.6%; in [11] it was 0.17%; in assay [12] it was 9.52%. Besides, in assay [13], the inhibition was -8.91%.
